From the CheMixHub ionic liquid set

Experiment: xn = mol fraction of the nth substance listed

O=C([O-])CC(O)(CC(=O)[O-])C(=O)[O-].[NH4+].[NH4+].[NH4+] + CC[n+]1ccn(C)c1.O=S(=O)([O-])O + O
viscosity [mPa·s], 101 kPa
Settings | x1 = 0.0003657, x2 = 0 | x1 = 0.0007347, x2 = 0 | x1 = 0.001087, x2 = 0 | x1 = 0.001443, x2 = 0 | x1 = 0.00179, x2 = 0 | x1 = 0.002235, x2 = 0 | x1 = 0.00271, x2 = 0
293.15 K | 1.022 | 1.043 | 1.063 | 1.083 | 1.102 | 1.127 | 1.153
298.15 K | 0.923 | 0.939 | 0.953 | 0.965 | 0.976 | 0.989 | 1.002
303.15 K | 0.829 | 0.846 | 0.859 | 0.872 | 0.883 | 0.897 | 0.911
308.15 K | 0.75 | 0.768 | 0.782 | 0.795 | 0.807 | 0.822 | 0.837
313.15 K | 0.684 | 0.702 | 0.717 | 0.731 | 0.744 | 0.76 | 0.776

NC(=O)C(F)(F)F + C[P+](c1ccccc1)(c1ccccc1)c1ccccc1.[Br-]
288.15 K, 101.3 kPa, x1 = 0.889
Settings | electrical conductivity [S/m] | viscosity [mPa·s]
– | 0.035 | 410
